The source of these data is patent US11591341B2 (ALIGOS THERAPEUTICS, INC., priority 2019, dated 2023).

As usually defined, the EC50 is the concentration needed to bring the measured effect to its halfway point. A high value points to weaker potency.

Where only a bound is given, the exact number is not on record here.

The assay has as its system HBV. Put plainly: HBV-DNA Antiviral Assay Using HepG2.117 Cells (intracellular HBV DNA by qPCR). It counts as cell-based, hepatitis B virus (genotype D). To be noted: Hepatitis B virus, HepG2.117. The procedure:
The following assay procedure describes the HBV antiviral assay, using HepG2.117 cells, which carry a stably integrated genotype D HBV genome under the control of a Tet-off promoter, and intracellular HBV DNA quantification as endpoint. Cell viability is assessed in parallel by measuring the intracellular ATP content using ATPlite (Perkin Elmer).
On day 0, HepG2.117 cells (which are maintained in routine cell culture with doxycycline present in the medium at a final concentration of 1 μg/mL) were seeded in 96-well plates (white with clear bottom) at a density of 2.0×10^4 cells/well (0.1 mL/well) in medium without doxycycline to induce pgRNA transcription and subsequent formation of HBV particles. The cells were incubated at 37° C. and 5% CO2.
On day 1, medium was removed from each well, the test articles were diluted in culture medium without doxcycyline and 100 μL was added to cell culture wells (9 concentrations, 4-fold dilution). For each plate, 6 untreated (merely DMSO) wells were included. The final concentration of DMSO in the culture medium was 2%. Each plate was prepared in duplicate (one for HBV DNA extraction, one for ATPlite measurement). The cells were incubated at 37° C. and 5% CO2 for 3 days.
On day 4, cell viability was assessed using ATPlite and cell lysates were prepared for HBV DNA extraction and subsequent quantification by qPCR.
Medium was removed from each well and 100 μL of 0.33% NP-40 in H2O was added to each well. Plates were sealed, incubated at 4° C. for 5 mins, vortexed extensively and centrifuged briefly. Next, 35 μL of lysate was added to 65 μL QuickExtract DNA Extraction Solution (Epicentre) in a PCR plate for each well. PCR plate was incubated at 65° C. for 6 mins, 98° C. for 2 mins and finally cooled to 4° C. HBV DNA was then quantified by qPCR with HBV-specific primers and probes as specified in Table 3 using the Bio-Rad SSOAdvanced Universal Probes Supermix on a CFX96 machine (Bio-Rad). The PCR cycle program consisted of 95° C. for 3 mins, followed by 40 cycles at 95° C. for 10 sec and 60° C. for 30 sec.
A DNA standard was prepared by dilution of an IDT gBlock corresponding to the amplicon with concentrations ranging from 10^2 to 10^8 copies/input (i.e. per 4 μL) and used to generate a standard curve by plotting Cq values vs. HBV DNA standard concentration. The quantity of HBV DNA in each sample was determined by interpolating from the standard curve.
Cell viability was calculated as follows: % Cell viability=(luminescence value of test sample)/(average luminescence value of 2% DMSO control)×100%. HBV DNA inhibition was calculated as follows: 100−(HBV DNA copy number of test sample)/(average HBV DNA copy number of 2% DMSO control)×100%. No normalization to entecavir was required due to the excellent dynamic window of this assay. The CC50, EC50 and EC90 values were determined by dose-response curves fitted by GraphPad Prism using “log (agonist) vs. response—Variable slope”.
For orientation: Quantitative PCR measures a nucleic acid by following its amplification.
Turning to `COc1ccc(-n2c(C(=O)NCc3ccc(OC(F)(F)F)cc3)c3n(c2=O)CCN(C(=O)c2ccc(Br)c(Cl)c2)C3)cc1` [Example 158, 7-(4-bromo-3-chloro-benzoyl)-2-(4-methoxyphenyl)-3-oxo-N-[[4-(trifluoromethoxy)phenyl]methyl]-6,8-dihydro-5H-imidazo[1,5-a]pyrazine-1-carboxamide], the EC50 was in the range of 0.1 to 0.5 µM.
On to `COc1ccc(-n2c(C(=O)NCc3ccc(F)c(OC)c3)c3n(c2=O)CCN(C(=O)c2ccc(Cl)c(Cl)c2)C3)cc1` [Example 103, 7-(3,4-dichlorobenzoyl)-N-[(4-fluoro-3-methoxy-phenyl)methyl]-2-(4-methoxyphenyl)-3-oxo-6,8-dihydro-5H-imidazo[1,5-a]pyrazine-1-carboxamide], for which the half-maximal effective concentration (EC50) was in the range of 0.5 to 5 µM.
To `COc1cc(CNC(=O)c2c3n(c(=O)n2-c2ccc(OC(C)C)cc2)CCN(C(=O)c2ccc(Br)c(Cl)c2)C3)ccc1C#N` [Example 211, 7-(4-bromo-3-chloro-benzoyl)-N-[(4-cyano-3-methoxy-phenyl)methyl]-2-(4-isopropxoyphenyl)-3-oxo-6,8-dihydro-5H-imidazo[1,5-a]pyrazine-1-carboxamide] belongs 0.5 to 5 µM.
Under `COc1ccc(-n2c(C(=O)N[C@H](C)C3CC3)c3n(c2=O)CCN(C(=O)c2ccc(Cl)c(Cl)c2)C3)cc1` (racemic) [Example 95, 7-(3,4-dichlorobenzoyl)-2-(4-methoxyphenyl)-3-oxo-N-[rac-(1R)-1-cyclopropylethyl]-6,8-dihydro-5H-imidazo[1,5-a]pyrazine-1-carboxamide] stands > 5 µM; under `COc1ccc(CN2C[C@@H](O)Cn3c(c4n(c3=O)CCN(C(=O)c3ccc(Br)c(Cl)c3)C4)C2=O)cc1` (stereo in doubt) [Example 193, rac-(11R)-4-(4-bromo-3-chloro-benzoyl)-11-hydroxy-13-[(4-methoxyphenyl)methyl]-4,7,9,13-tetrazatricyclo[7.5.0.0^2,7]tetradec-1-ene-8,14-dione], 0.1 to 0.5 µM; under `NS(=O)(=O)c1cccc(-n2c(C(=O)NCc3ccccc3)c3n(c2=O)CCN(C(=O)c2ccc(Br)c(Cl)c2)C3)c1` [Example 47, N-benzyl-7-(4-bromo-3-chloro-benzoyl)-3-oxo-2-(3-sulfamoylphenyl)-6,8-dihydro-5H-imidazo[1,5-a]pyrazine-1-carboxamide], > 5 µM.
Under `C[C@H](NC(=O)c1c2n(c(=O)n1-c1ccc(OC3CC3)cc1)CCN(C(=O)c1ccc(Br)c(Cl)c1)C2)c1ccc(OCC(N)=O)cc1-n1cccn1` (racemic) [Example 378, 7-(4-bromo-3-chloro-benzoyl)-2-[4-(cyclopropoxy)phenyl]-3-oxo-N-[rac-(1S)-1-[4-(2-amino-2-oxo-ethoxy)-2-pyrazol-1-yl-phenyl]ethyl]-6,8-dihydro-5H-imidazo[1,5-a]pyrazine-1-carboxamide] stands > 5 µM; under `C[C@@H](NC(=O)c1c2n(c(=O)n1C)CCN(C(=O)c1ccc(Br)c(Cl)c1)C2)c1ccccc1` (stereo in doubt) [Example 113, 7-(4-bromo-3-chloro-benzoyl)-2-methyl-3-oxo-N-[rac-(1R)-1-phenylethyl]-6,8-dihydro-5H-imidazo[1,5-a]pyrazine-1-carboxamide], 0.5 to 5 µM.
As to `C[C@@H](c1ccccc1)N1C[C@@H](O)Cn2c(c3n(c2=O)CCN(C(=O)c2ccc(Br)c(Cl)c2)C3)C1=O` (stereo in doubt) [Example 237, (11RS)-2-(4-bromo-3-chloro-benzoyl)-11-hydroxy-13-[(1S)-1-phenylethyl]-4,7,9,13-tetrazatricyclo[7.5.0.0^2,7]tetradec-1-ene-8,14-dione], the EC50 fell in the range of 0.5 to 5 µM.
To `O=C(NCc1ccccc1)c1c2n(c(=O)n1-c1ccc(OCC(F)F)cc1)CCN(C(=O)c1ccc(Br)c(Cl)c1)C2` [Example 260, N-benzyl-7-(4-bromo-3-chloro-benzoyl)-2-[4-(2,2-difluoroethoxy)phenyl]-3-oxo-6,8-dihydro-5H-imidazo[1,5-a]pyrazine-1-carboxamide] belongs 0.5 to 5 µM; to `O=C(c1ccc(Br)c(Cl)c1)N1CCn2c(c3n(c2=O)C[C@H](F)CN(Cc2ccccc2)C3=O)C1` (stereo in doubt) [Example 200, rac-(11R)-13-benzyl-4-(4-bromo-3-chloro-benzoyl)-11-fluoro-4,7,9,13-tetrazatricyclo[7.5.0.0^2,7]tetradec-1-ene-8,14-dione], 0.1 to 0.5 µM; to `O=C(NCc1ccccc1)c1c2n(c(=O)n1-c1ccc(-c3ncc[nH]3)cc1)CCN(C(=O)c1ccc(Br)c(Cl)c1)C2` [Example 430, N-benzyl-7-(4-bromo-3-chloro-benozyl)-2-[4-(1H-imidazol-2-yl)phenyl]-3-oxo-6,8-dihydro-5H-imidazo[1,5-a]pyrazine-1-carboxamide], 0.5 to 5 µM.
To `N#Cc1cc(C(=O)N2CCn3c(c(C(=O)NCc4ccccc4-c4ncco4)n(-c4ccc(OC5CC5)cc4)c3=O)C2)ccc1Br` [Example 433, 7-(4-bromo-3-cyano-benzoyl)-2-[4-(cyclopropxy)phenyl]-N-[(2-oxazol-2-ylphenyl)methyl]-3-oxo-6,8-dihydro-5H-imidazo[1,5-a]pyrazine-1-carboxamide] belongs 0.1 to 0.5 µM.
To `COc1ccc(CNC(=O)c2c3n(c(=O)n2-c2ccc(OCC(F)(F)F)cc2)CCN(C(=O)c2ccc(Br)c(Cl)c2)C3)c(-n2cccn2)c1` [Example 258, 7-(4-bromo-3-chloro-benzoyl)-N-[(4-methoxy-2-pyrazol-1-yl-phenyl)methyl]-3-oxo-2-[4-(2,2,2-trifluroethoxy)phenyl]-6,8-dihydro-5H-imidazo[1,5-a]pyrazine-1-carboxamide] belongs < 0.1 µM; to `C[C@H](NC(=O)c1c2n(c(=O)n1-c1ccc(OCC(F)(F)F)cc1)CCN(C(=O)c1ccc(Br)c(Cl)c1)C2)c1cccc2nccnc12` (stereo in doubt) [Example 384, 7-(4-bromo-3-chloro-benzoyl)-3-oxo-N-[rac-(1S)-1-quinoxalin-5-ylethyl]-2-[4-(2,2,2-trifluoroethoxy)phenyl]-6,8-dihydro-5H-imidazo[1,5-a]pyrazine-1-carboxamide], 0.1 to 0.5 µM; to `O=C(NCc1ccc(OC2COC2)cc1F)c1c2n(c(=O)n1-c1ccc(OC3CC3)cc1)CCN(C(=O)c1ccc(Br)c(Cl)c1)C2` [Example 363, 7-(4-bromo-3-chloro-benzoyl)-2-[4-(cyclopropoxy)phenyl]-N-[[2-fluoro-4-(oxetan-3-yloxy)phenyl]methyl]-3-oxo-6,8-dihydro-5H-imidazo[1,5-a]pyrazine-1-carboxamide], 0.1 to 0.5 µM.
As for `COc1ccc(-n2c(C(=O)NCc3ccccc3)c3n(c2=O)CCN(C(=O)c2ccc(Br)c(Cl)c2)C3)nc1` [Example 110, N-benzyl-7-(4-bromo-3-chloro-benzoyl)-2-(5-methoxy-2-pyridyl)-3-oxo-6,8-dihydro-5H-imidazo[1,5-a]pyrazine-1-carboxamide], the EC50 is 0.5 to 5 µM.
To `COc1ccc(-n2c(C(=O)NCc3ccccc3OC)c3n(c2=O)CCN(C(=O)c2ccc(Br)c(Cl)c2)C3)cc1` [Example 114, 7-(4-bromo-3-chloro-benzoyl)-2-(4-methoxyphenyl)-N-[(2-methoxyphenyl)methyl]-3-oxo-6,8-dihydro-5H-imidazo[1,5-a]pyrazine-1-carboxamide] belongs 0.1 to 0.5 µM; to `O=C(NCc1ccccc1)c1c2n(c(=O)n1-c1ccc(-n3ccnc3)cc1)CCN(C(=O)c1ccc(Br)c(Cl)c1)C2` [Example 312, N-benzyl-7-(4-bromo-3-chloro-benzoyl)-2-(4-imidazol-1-ylphenyl)-3-oxo-6,8-dihydro-5H-imidazo[1,5-a]pyrazine-1-carboxamide], 0.5 to 5 µM; to `CC(C)Oc1ccc(-n2c(C(=O)NCc3ccc(C(C)(C)O)cc3)c3n(c2=O)CCN(C(=O)c2ccc(Br)c(Cl)c2)C3)cc1` [Example 407, 7-(4-bromo-3-chloro-benzoyl)-N-[[4-(1-hydroxy-1-methyl-ethyl)phenyl]methyl]-2-(4-isopropoxyphenyl)-3-oxo-6,8-dihydro-5H-imidazo[1,5-a]pyrazine-1-carboxamide], < 0.1 µM.
